6 compounds from PMC6199744, “Development of Chemical Proteomics for the Folateome and Analysis of the Kinetoplastid Folateome” (ACS Infectious Diseases, 2018) can be followed below.

A word on the inhibition: it is the drop in the measured response relative to a control, in per cent.

Structures are written as SMILES. Like-named read-outs stand apart in the source and are kept apart here.

Experiment [1] concerns the target T1, MTHF complex (DHCH protein in humans) (Homo sapiens, UniProt P11586).
T1 sequence (P11586 1-935): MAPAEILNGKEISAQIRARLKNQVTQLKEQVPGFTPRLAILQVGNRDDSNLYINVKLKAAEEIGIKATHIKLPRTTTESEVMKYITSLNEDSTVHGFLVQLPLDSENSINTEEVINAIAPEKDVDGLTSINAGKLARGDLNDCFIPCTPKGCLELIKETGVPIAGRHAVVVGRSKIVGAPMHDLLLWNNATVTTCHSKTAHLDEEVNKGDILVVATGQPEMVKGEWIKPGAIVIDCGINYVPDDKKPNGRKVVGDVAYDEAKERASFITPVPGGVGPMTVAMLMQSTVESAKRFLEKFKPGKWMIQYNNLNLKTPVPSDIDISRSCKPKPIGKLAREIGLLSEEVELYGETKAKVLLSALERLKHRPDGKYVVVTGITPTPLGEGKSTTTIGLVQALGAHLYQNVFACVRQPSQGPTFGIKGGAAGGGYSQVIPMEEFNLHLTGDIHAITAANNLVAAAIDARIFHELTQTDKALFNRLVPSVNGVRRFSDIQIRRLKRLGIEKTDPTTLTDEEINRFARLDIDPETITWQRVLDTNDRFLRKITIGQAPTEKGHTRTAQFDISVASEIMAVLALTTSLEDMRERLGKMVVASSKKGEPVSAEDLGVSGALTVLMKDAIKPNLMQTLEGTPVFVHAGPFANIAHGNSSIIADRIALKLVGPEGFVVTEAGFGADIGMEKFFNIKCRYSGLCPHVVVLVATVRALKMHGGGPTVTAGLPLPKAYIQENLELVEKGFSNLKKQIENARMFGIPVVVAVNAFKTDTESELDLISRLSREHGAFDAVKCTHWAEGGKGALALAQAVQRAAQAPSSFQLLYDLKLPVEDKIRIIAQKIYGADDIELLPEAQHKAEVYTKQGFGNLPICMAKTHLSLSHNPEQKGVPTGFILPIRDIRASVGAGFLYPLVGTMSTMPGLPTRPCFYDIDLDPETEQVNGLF
Nature of the experiment: Multitargeted bead mixture competition, HeLa cell extract. The class given is binding.

In experiment [2] the target is T2, DHFR (Homo sapiens, UniProt P00374).
T2 sequence (P00374 1-187): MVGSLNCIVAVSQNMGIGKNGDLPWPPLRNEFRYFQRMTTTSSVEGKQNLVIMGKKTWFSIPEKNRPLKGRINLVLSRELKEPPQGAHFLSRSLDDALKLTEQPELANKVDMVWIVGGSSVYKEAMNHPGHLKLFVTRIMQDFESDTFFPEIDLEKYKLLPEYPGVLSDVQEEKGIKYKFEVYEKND
Described as above. The class given is binding.

Experiment [3] deals with variant surface glycoprotein 221 (VSM2.TRYBB) (Trypanosoma brucei brucei, UniProt P26332). The format is binding, T. brucei. Conditions: for fold change - vehicle control / fold change: protein VSM2_TRYBB VARIANT SURFACE GL[…] 1.2; for fold change: vehicle control = 1.
Experiment [4] has as its target T3, PTR1 (Leishmania major, UniProt Q01782).
T3 sequence (Q01782 1-288): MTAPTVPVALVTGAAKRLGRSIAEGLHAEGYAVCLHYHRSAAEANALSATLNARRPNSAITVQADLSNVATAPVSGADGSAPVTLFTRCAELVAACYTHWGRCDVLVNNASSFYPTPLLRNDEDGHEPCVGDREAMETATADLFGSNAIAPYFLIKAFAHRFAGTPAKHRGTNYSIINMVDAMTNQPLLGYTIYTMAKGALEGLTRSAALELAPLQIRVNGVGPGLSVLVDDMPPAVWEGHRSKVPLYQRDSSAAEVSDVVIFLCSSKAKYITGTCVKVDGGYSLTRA
Nature of the experiment: biochemical. The note with it: competing free ligand 100 μM; bead = immobilized compound of the row; L. major lysate; read-out: % Inhibition of protein binding to bead, PTR-1, L. major.

The target of experiment [5] is T4, MTHFS, the 5-formyl-THF-cyclo-ligase (Homo sapiens, UniProt P49914).
T4 sequence (P49914 1-203): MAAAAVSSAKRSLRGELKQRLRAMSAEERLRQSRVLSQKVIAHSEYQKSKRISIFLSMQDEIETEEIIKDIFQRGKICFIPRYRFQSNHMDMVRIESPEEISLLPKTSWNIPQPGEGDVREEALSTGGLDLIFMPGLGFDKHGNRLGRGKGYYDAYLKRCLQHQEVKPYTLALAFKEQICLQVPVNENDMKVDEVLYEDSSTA
Nature of the experiment: Multitargeted bead mixture competition, HeLa cell extract. The class given is binding. Conditions: for binding to MTHFS: bead mixture, HeLa cell extract.

The target of experiment [6] is DHFR-TS (Leishmania major, UniProt P07382). In words: biochemical. Conditions: competing free ligand 100 μM; bead = immobilized compound of the row; L. major lysate; read-out: % Inhibition of protein binding to bead, DHFR-TS, L. major.
Experiment [7] concerns the target methylene-THF-reductase (Homo sapiens, UniProt P42898). In words: Multitargeted bead mixture competition, HeLa cell extract. The format is binding.
Experiment [8] deals with DHCH. Nature of the experiment: Multitargeted bead mixture competition. Conditions: CYTOPLASMIC, PUTATIVE; for fold change: vehicle control = 1. The class given is binding, L. major.
The subject of experiment [9] is TB11.03.0290. In words: Multitargeted bead mixture competition. The class given is binding, T. brucei. The note with it: protein TB11.03.0290 PROTEIN KINASE, PUTATIVE
Experiment [10] addresses inosine-5′-monophosphate dehydrogenase (Tb927.10.16120) (Trypanosoma brucei brucei, UniProt P50098). In words: Multitargeted bead mixture competition. Conditions: for fold change: protein TB927.10.16120 INOSINE-5'-MONOPHOSPHATE DEHYDROGENASE, vehicle control = 1. The format is binding, T. brucei.
Experiment [11] addresses T. brucei lysate proteins (Trypanosoma brucei brucei, UniProt P38973). The format is binding. Conditions: protein TB427.10.1070 CELL DIVISION PROTEIN KINASE 2 HOMOLOG 1 (CRK1).
Experiment [12] concerns TB927.8.6460. Nature of the experiment: Multitargeted bead mixture competition. The note with it: CONSERVED, vehicle control = 1. The format is binding, T. brucei.
For experiment [13], the target named is T. brucei lysate proteins (Trypanosoma brucei brucei, UniProt P12861). The format is binding.
Experiment [14] concerns the target T. brucei lysate proteins (Trypanosoma brucei brucei, UniProt Q04933). The format is binding.
Experiment [15] concerns the target T. brucei lysate proteins (Trypanosoma brucei brucei, UniProt P07752). The format is binding.
Experiment [16] deals with T. brucei lysate proteins (Trypanosoma brucei brucei, UniProt P13377). The format is binding.
[17] abbreviates: protein LMJF.26.0320 C-1-TETRAHYDROFOLATE SYNTHASE
Where [18] appears, read: HeLa, captured protein MTHFD1 (105 KDA PROTEIN.).
The mark [19] stands for this setting: HeLa, protein DHFR (SIMILAR TO DIHYDROFOLATE REDUCTASE ISOFORM 2, PARTIAL).
Where [20] appears, read: protein TB427.10.10980 HEAT SHOCK PROTEIN 83, vehicle control = 1.
[21] abbreviates: protein TB427TMP.01.8470 DIHYDROLIPOYL DEHYDROGENASE, vehicle control = 1.
[22] abbreviates: protein TB927.10.5620 FRUCTOSE-BI[…], GLYCOSOMAL, vehicle control = 1.
The mark [23] stands for this setting: protein TB427.01.3830 GLUCOSE-6-PHOSPHATE ISOMERASE, GLYCOSOMAL, vehicle control = 1.
[24] abbreviates: protein LMJF.26.0320 C-1-TETRAH[…].
The mark [25] stands for this setting: bead mixture, T. brucei lysates.

Regarding `CCCCCCOc1cccc(Cc2cnc(N)nc2N)c1` [compound 2], the “fold changes relative to vehicle control” value in experiment [1] (HeLa, protein MTHFD1) was 0.84; in experiment [2] (captured protein DHFR, HeLa), 2.77; in experiment [5] (captured protein MTHFS, HeLa), 0.89; in experiment [7] (captured protein MTHFR, HeLa) it was 0.58. Moreover, the “fold change - vehicle control” value in experiment [3] was found to be 1.6; in experiment [9], 0.99; in experiment [11], 0.86. For the same compound, the inhibition at 100 µM in experiment [4] and in experiment [6] was < 50% each time. Further, the “fold change vs vehicle control” value in [8] (setting [17]) is reported as 0.96. The fold change in experiment [10] is reported as 1.03.
As for `NCCOCCOCC(=O)Nc1nc2ncc(CNc3ccc(C(=O)NC(CCC(=O)O)C(=O)O)cc3)nc2c(=O)[nH]1` (stereo not shown) [compound 6], the “fold changes relative to vehicle control” value in experiment [1] (setting [18]) stood at 0.92; in experiment [2] (setting [19]), 1.74; in experiment [5] (protein MTHFS, HeLa) it was 0.5; in [7] (protein MTHFR, HeLa) it was 0.84. Besides, the fold change was 2.16 in [3], 0.98 in [8] (setting [17]), 1.03 in experiment [12] (protein TB927.8.6460 HY[…]) and 1 in [10]. The “fold change vs vehicle control” value came out at 1.41 in experiment [13] (setting [20]), 0.97 in experiment [14] (setting [21]), 1.2 in experiment [15] (setting [22]) and 0.98 in experiment [16] (setting [23]).
As for `CCCCCCOc1ccc(Cc2cnc(N)nc2N)cc1` [compound 1], the “fold changes relative to vehicle control” value was 0.05 in experiment [1] (HeLa, protein MTHFD1); 0.46 in experiment [2] (captured protein DHFR, HeLa); 0.21 in [5] (captured protein MTHFS, HeLa); 0.27 in experiment [7] (captured protein MTHFR, HeLa). The “binding to DHFR” value in [2] (bead mixture, HeLa cell extract) is reported as “found to bind DHFR”. Further, the figures for the “fold change - vehicle control” value in [3], in [9] and in [11] were 1.43, 0.91 and 0.76, respectively. Moreover, the inhibition at 100 µM in experiment [4] and in experiment [6] was < 50% each time. The “fold change vs vehicle control” value in experiment [8] (setting [17]) amounted to 0.93. Further, the fold change in [10] is recorded as 0.93.
With `Nc1nc2c(c(=O)[nH]1)N(C=O)C(CNc1ccc(C(=O)N[C@@H](CCC(=O)O)C(=O)O)cc1)CN2` (stereo partly shown) [LEU, leucovorin], the “fold changes relative to vehicle control” value in experiment [1] (setting [18]) is given as 0.61; in experiment [2] (setting [19]) it was 2.72; in experiment [5] (protein MTHFS, HeLa), 0.15; in experiment [7] (protein MTHFR, HeLa) it was 0.52. The fold change in [3] worked out at 3.08; in [8] (setting [17]) it was 0.98; in experiment [12] (protein TB927.8.6460 HYPOTHETICAL PROTEIN), 0.84; in [10] it was 1.11. For the same compound, the “binding to MTHFS” value in [5] is recorded as “bound MTHFS”. Moreover, the “fold change vs vehicle control” value in experiment [13] (setting [20]) was determined as 1.64; in [14] (setting [21]), 0.93; in experiment [15] (setting [22]), 1.22; in experiment [16] (setting [23]), 1.22.
As for `NCCCNc1ccc(C(=O)NC(CCC(=O)O)C(=O)O)cc1` (stereo not shown) [compound 7], the “fold changes relative to vehicle control” value in [1] (setting [18]) was found to be 1; in experiment [2] (setting [19]) it was 0.98; in experiment [5] (protein MTHFS, HeLa) it was 1.03; in experiment [7] (protein MTHFR, HeLa) it was 1. For the same compound, the fold change in experiment [3] was determined as 0.81; in [8] (setting [24]), 1.06; in [12] (protein TB927.8.6460 HY[…]), 1.04; in experiment [10], 1.04. The “fold change vs vehicle control” value in experiment [13] (setting [20]) stood at 1; in experiment [14] (setting [21]) it was 1.05; in experiment [15] (setting [22]), 1.08; in [16] (setting [23]) it was 0.88.
Regarding `Nc1nc2[nH]cc(CCc3ccc(C(=O)N[C@@H](CCC(=O)O)C(=O)O)cc3)c2c(=O)[nH]1` [PTX, pemetrexed], the “fold changes relative to vehicle control” value in experiment [1] is 0.72; in experiment [2] it was 1.09; in experiment [5] it was 0.17; in experiment [7], 0.47. Further, the “binding to DHFR” value in [2] is reported as “did not appear to bind DHFR”. In addition, the “binding to variant surface glycoprotein 221 (VSM2.TRYBB)” value in experiment [3] (setting [25]) is recorded as “bound specifically”. For the same compound, the fold change in experiment [3] was 0.39; in [8] (setting [24]), 0.79; in experiment [12] (protein TB927.8.6460 HY[…]), 0.66; in experiment [10], 0.49. Moreover, the “binding to MTHFS” value in [5] is on record as “bound MTHFS”. Moreover, in experiment [10] (setting [25]), the “binding to inosine-5′-monophosphate dehydrogenase (Tb927.10.16120)” value is reported as “appeared to bind”. In addition, the “fold change vs vehicle control” value in experiment [13] was 0.76; in experiment [14] it was 0.97; in [15], 1.11; in experiment [16], 0.85.
